Source: US4008227A, “Cephalosporins” (Takeda Chemical Industries, Ltd., priority 1973, dated 1977)
In brackets after ≈: the same amount, converted by molar mass. Structures can show the parent of a compound that is named as a salt.

Tests used:
Assay type in all cases: cell-based
Proteus mirabilis Eb59 = assay: MIC against Proteus mirabilis Eb59
[1] = tested on: Staphylococcus aureus No. 87; assay: MIC against Staphylococcus aureus No. 87
Sarcina lutea PCI 1001 = assay: MIC against Sarcina lutea PCI 1001; conditions: Micrococcus luteus, PCI1001
Proteus vulgaris Eb51 = assay: MIC against Proteus vulgaris Eb51
[2] = tested on: Staphylococcus aureus 209P; assay: MIC against Staphylococcus aureus 209P
[3] = tested on: Bucillus subtilis PCI 219; assay: MIC against Bucillus subtilis PCI 219
Escherichia coli NIHJ = assay: MIC against Escherichia coli NIHJ
[4] = tested on: Staphylococcus aureus 1840; assay: MIC against Staphylococcus aureus 1840
Klebsiella pneumoniae = assay: MIC against Klebsiella pneumoniae
Proteus vulgaris = assay: MIC against Proteus vulgaris (strain not given)
Proteus morganii Eb53 = assay: MIC against Proteus morganii Eb53; conditions: Morganella morganii

MIC (Proteus mirabilis Eb59) [µg/mL]	MIC [1] [µg/mL]	MIC (Sarcina lutea PCI 1001) [µg/mL]	MIC (Proteus vulgaris Eb51) [µg/mL]	MIC [2] [µg/mL]	MIC [3] [µg/mL]	MIC (Escherichia coli NIHJ) [µg/mL]	MIC [4] [µg/mL]	MIC (Klebsiella pneumoniae) [µg/mL]	MIC (Proteus vulgaris) [µg/mL]	MIC (Proteus morganii Eb53) [µg/mL]	SMILES
–	–	–	–	< 0.78	–	1.56	< 1.56	< 0.78	3.12	25	O=C(O)C1=C(CSc2ccc(Cl)n[n+]2[O-])CSC2C(NC(=O)[C@H](O)c3ccccc3)C(=O)N12 (single isomer, unassigned) [Example 7, 7-[D-(-)-mandelamido]-3-[6'-(3'-chloropyridazinyl)thiomethyl]-3-cephem-4-carboxylic acid 1'-oxide sodium salt]
–	–	–	–	< 0.78	–	1.56 (≈ 3.25 µM)	1.56 (≈ 3.25 µM)	1.56 (≈ 3.25 µM)	–	–	Cc1ccc(SCC2=C(C(=O)O)N3C(=O)C(NC(=O)C[n+]4cc([O-])on4)C3SC2)n[n+]1[O-] (stereo not shown) [Example 11, 7-[2'-(3'-sydnone)acetamido]-3-[6"-(3"-methylpyridazinyl)thiomethyl]-3-cephem-4-carboxylic acid 2"-oxide]
–	–	–	–	< 0.78	–	1.56	1.56	1.56	–	–	O=C(C[n+]1cc([O-])on1)NC1C(=O)N2C(C(=O)O)=C(CSc3ccc(Cl)n[n+]3[O-])CSC12 (stereo not shown) [Example 12, 7-[2'-(3'-sydnone)acetamido]-3[6"-(3"-chloropyridazinyl)-thiomethyl]-3-cephem-4-carboxylic acid 1"-oxide sodium salt]

The remaining lines, values behind:

SMILES	MIC (Proteus mirabilis Eb59) [µg/mL]	MIC [1] [µg/mL]	MIC (Sarcina lutea PCI 1001) [µg/mL]	MIC (Proteus vulgaris Eb51) [µg/mL]	MIC [2] [µg/mL]	MIC [3] [µg/mL]	MIC (Escherichia coli NIHJ) [µg/mL]	MIC [4] [µg/mL]	MIC (Klebsiella pneumoniae) [µg/mL]	MIC (Proteus vulgaris) [µg/mL]	MIC (Proteus morganii Eb53) [µg/mL]
Cc1ccc(SCC2=C(C(=O)O)N3C(=O)C(NC(=O)[C@H](O)c4ccccc4)C3SC2)n[n+]1[O-] (single isomer, unassigned) [Example 1, 7-[D-(-)-mandelamido]-3-[6'-(3'-methylpyridazinyl)thiomethyl] -3-cephem-4-carboxylic acid 2'-oxide sodium salt]	5	5	0.2	1	0.1	< 0.01	0.5	–	–	–	–
COc1ccc(SCC2=C(C(=O)O)N3C(=O)C(NC(=O)[C@H](O)c4ccccc4)C3SC2)[n+]([O-])n1 (single isomer, unassigned) [Example 6, 7-[D-(-)-mandelamido]-3-[6'-(3'-methoxypyridazinyl)thiomethyl]-3-cephem-4-carboxylic acid 1'-oxide sodium salt]	–	–	–	–	< 0.78	–	1.56	1.56	1.56	–	–
COc1ccc(SCC2=C(C(=O)O)N3C(=O)C(NC(=O)C[n+]4cc([O-])on4)C3SC2)[n+]([O-])n1 (stereo not shown) [Example 13, 7-[2'-(3'-sydnone)acetamido]-3-[6"-(3"-methoxypyridazinyl)thiomethyl]-3-cephem-4-carboxylic acid 1"-oxide sodium salt]	–	–	–	–	< 0.78	–	–	1.56	1.56	–	–
